# Measurements taken from US20240115527A1, “CXCR1/CXCR2 INHIBITORS FOR USE IN TREATING MYELOFIBROSIS” (Icahn School of Medicine at Mount Sinai, priority 2020, published 2024).
# System: MF CD34+ cells
# Test: Clonal assays of MF CD34+ cells; JAK2V617F allele status of picked hematopoietic colonies
# Assay type: cell-based, human
# Procedure: Individual hematopoietic colonies were randomly picked from clonal assays of CD34^+ cells from 6 MF cases and the JAK2V617F allele status was determined.
# IL-8 alone increased the absolute numbers of JAK2V617F+ colonies, and the addition of Ladarixin reduced the numbers of JAK2V617F positive colonies stimulated by IL-8 (Tables 1-3).
# [1] = MF1 CD34+ cells, IL-8 10 ng, no ladarixin
# [2] = MF1 CD34+ cells, IL-8 20 ng, no ladarixin
# [3] = MF1 CD34+ cells, IL-8 50 ng, no ladarixin
# [4] = MF1 CD34+ cells, IL-8 100 ng, no ladarixin
# [5] = MF2 CD34+ cells, IL-8 10 ng, no ladarixin
# [6] = MF2 CD34+ cells, IL-8 20 ng, no ladarixin
# [7] = MF2 CD34+ cells, IL-8 50 ng, no ladarixin
# [8] = MF2 CD34+ cells, IL-8 100 ng, no ladarixin
# [9] = MF3 CD34+ cells, IL-8 10 ng, no ladarixin
# [10] = MF3 CD34+ cells, IL-8 20 ng, no ladarixin
# [11] = MF3 CD34+ cells, IL-8 50 ng, no ladarixin
# [12] = MF3 CD34+ cells, IL-8 100 ng, no ladarixin
# [13] = MF4 CD34+ cells, IL-8 10 ng, no ladarixin
substance,measurement,setting,value
IL-8: pro-inflammatory cytokine; CXCR1 and CXCR2 are its receptors,absolute numbers of JAK2V617F+ colonies,"IL-8 alone, 6 MF cases",increased
same,"number of colonies, Heter (JAK2V617F heterozygous)",[1],36
same,"number of colonies, Homo (JAK2V617F homozygous)",[1],0
same,"number of colonies, WT (JAK2 wild type)",[1],18
same,"number of colonies, Heter (JAK2V617F heterozygous)",[2],48
same,"number of colonies, Homo (JAK2V617F homozygous)",[2],0
same,"number of colonies, WT (JAK2 wild type)",[2],17
same,"number of colonies, Heter (JAK2V617F heterozygous)",[3],52
same,"number of colonies, Homo (JAK2V617F homozygous)",[3],0
same,"number of colonies, WT (JAK2 wild type)",[3],21
same,"number of colonies, Heter (JAK2V617F heterozygous)",[4],68
same,"number of colonies, Homo (JAK2V617F homozygous)",[4],0
same,"number of colonies, WT (JAK2 wild type)",[4],0
same,"number of colonies, Heter (JAK2V617F heterozygous)",[5],0
same,"number of colonies, Homo (JAK2V617F homozygous)",[5],0
same,"number of colonies, WT (JAK2 wild type)",[5],44
same,"number of colonies, Heter (JAK2V617F heterozygous)",[6],3
same,"number of colonies, Homo (JAK2V617F homozygous)",[6],0
same,"number of colonies, WT (JAK2 wild type)",[6],38
same,"number of colonies, Heter (JAK2V617F heterozygous)",[7],7
same,"number of colonies, Homo (JAK2V617F homozygous)",[7],0
same,"number of colonies, WT (JAK2 wild type)",[7],41
same,"number of colonies, Heter (JAK2V617F heterozygous)",[8],3
same,"number of colonies, Homo (JAK2V617F homozygous)",[8],0
same,"number of colonies, WT (JAK2 wild type)",[8],52
same,"number of colonies, Heter (JAK2V617F heterozygous)",[9],27
same,"number of colonies, Homo (JAK2V617F homozygous)",[9],80
same,"number of colonies, WT (JAK2 wild type)",[9],36
same,"number of colonies, Heter (JAK2V617F heterozygous)",[10],79
same,"number of colonies, Homo (JAK2V617F homozygous)",[10],63
same,"number of colonies, WT (JAK2 wild type)",[10],31
same,"number of colonies, Heter (JAK2V617F heterozygous)",[11],30
same,"number of colonies, Homo (JAK2V617F homozygous)",[11],99
same,"number of colonies, WT (JAK2 wild type)",[11],30
same,"number of colonies, Heter (JAK2V617F heterozygous)",[12],32
same,"number of colonies, Homo (JAK2V617F homozygous)",[12],95
same,"number of colonies, WT (JAK2 wild type)",[12],42
same,"number of colonies, Heter (JAK2V617F heterozygous)",[13],183
same,"number of colonies, Homo (JAK2V617F homozygous)",[13],12
same,"number of colonies, Wild (JAK2 wild type)",[13],0
